# Ends that are not written are not given here.
# Test system: clinical Salmonella isolates
# Assay: Antibiofilm: inhibition of initial cell attachment, crystal violet
# Assay type: cell-based
# Conditions: 24 h, 30 °C, polystyrene plate, crystal violet OD590
# Method: The effect of peptides on biofilm formation was tested according to the method described by Sandasi et al. with slight modifications.
# Bacterial suspensions of 5 × 10^5 CFU/mL in MHB were prepared as described above. […] The plates were incubated to grow biofilms for 24 h at 30 °C. The incubations of bacteria without peptide and MHB without bacteria were employed as positive (100%) control and negative (0%) control for biofilm growth, respectively. The assay was carried out twice.
# The biofilm biomasses obtained from the antibiofilm assay plates were quantified by the crystal violet (CV) staining method with minor modifications. After incubating the plates to grow the biofilms, the growth medium and free bacterial cells were gently removed from the wells and then rinsed thrice with water. The plates were air-dried and subsequently 60 °C oven-dried for 30 min. Each well was stained with 125 µL of 0.1% CV (Merck, Burlington, MA, USA) solution for 15 min. The solution was removed from the wells and further thrice rinsed with water. The biomass bound CV was dissolved with 125 µL of 95% ethanol (Merck) for 5 min, and was transferred into a flat-bottom PS 96-well plate (Jet Biofil, Guangzhou, China). Absorbance values at 590 nm (OD590) of the dissolved solutions were measured by a microplate reader (Tecan Sunrise, Männedorf, Switzerland). Mean OD590 values were determined and all were subtracted by mean OD590 of MHB (negative control) prior to calculate the inhibition (%) as; ((OD590 (no peptide) − OD590 (peptide))/(OD590 (no peptide)) × 100.
substance,measurement,setting,value
FIRRIARLLRRIF-NH2 [Kn2-5R-NH2],Inhibition (%) of cell attachment,"0.25MBC, isolate 5",69%
same,Inhibition (%) of cell attachment,"0.25MBC, isolate 7",73.6%
same,Inhibition (%) of cell attachment,"0.25MBC, isolate 11",64.3%
same,Inhibition (%) of cell attachment,"0.25MBC, isolate 18",25%
same,Inhibition (%) of cell attachment,"0.25MBC, isolate 26",88.2%
same,Inhibition (%) of cell attachment,"0.25MBC, isolate 27",79.1%
same,Inhibition (%) of cell attachment,"0.25MBC, isolate 55",73.3%
same,Inhibition (%) of cell attachment,"0.25MBC, isolate 61",33.3%
same,Inhibition (%) of cell attachment,"0.25MBC, isolate 69",40%
same,Inhibition (%) of cell attachment,"0.25MBC, isolate 76",79.1%
same,Inhibition (%) of cell attachment,"0.25MBC, isolate 78",43.9%
same,Inhibition (%) of cell attachment,"0.25MBC, isolate 107",78.3%
same,Inhibition (%) of cell attachment,"0.5MBC, isolate 5",100%
same,Inhibition (%) of cell attachment,"0.5MBC, isolate 7",93%
same,Inhibition (%) of cell attachment,"0.5MBC, isolate 11",100%
same,Inhibition (%) of cell attachment,"0.5MBC, isolate 18",58.3%
same,Inhibition (%) of cell attachment,"0.5MBC, isolate 26",100%
same,Inhibition (%) of cell attachment,"0.5MBC, isolate 27",100%
same,Inhibition (%) of cell attachment,"0.5MBC, isolate 55",84.1%
same,Inhibition (%) of cell attachment,"0.5MBC, isolate 61",63.2%
same,Inhibition (%) of cell attachment,"0.5MBC, isolate 69",64.8%
same,Inhibition (%) of cell attachment,"0.5MBC, isolate 76",100%
same,Inhibition (%) of cell attachment,"0.5MBC, isolate 78",98.9%
same,Inhibition (%) of cell attachment,"0.5MBC, isolate 107",100%
